# Entries after “also recorded” stand apart in the source; their conditions may differ. Read-outs that look alike come from different tables or passages of the source.
# What was measured:
# His-DrCK1δA = target: T1, His-DrCK1δA (Danio rerio, UniProt Q7T2E3); assay: in vitro kinase assay, α-casein phosphorylation with [γ-32P]-ATP, standard conditions; format: biochemical, zebrafish (Danio rerio)
# T1 construct: made in house; host or cells: E. coli Rosetta 2 (DE3)
# T1 sequence (Q7T2E3 1-403): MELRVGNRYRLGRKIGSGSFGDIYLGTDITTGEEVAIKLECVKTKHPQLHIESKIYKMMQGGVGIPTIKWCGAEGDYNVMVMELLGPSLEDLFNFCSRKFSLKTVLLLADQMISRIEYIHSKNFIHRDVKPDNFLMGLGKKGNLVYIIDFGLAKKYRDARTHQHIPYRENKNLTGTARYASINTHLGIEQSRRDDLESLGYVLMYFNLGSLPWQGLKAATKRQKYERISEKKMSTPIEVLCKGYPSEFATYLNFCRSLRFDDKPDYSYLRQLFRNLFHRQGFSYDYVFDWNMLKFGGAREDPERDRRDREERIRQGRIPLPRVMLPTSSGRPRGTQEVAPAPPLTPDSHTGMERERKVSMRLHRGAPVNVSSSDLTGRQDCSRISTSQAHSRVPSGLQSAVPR
# Procedure: (§1) Each in vitro kinase reaction was performed in a total volume of 15 µL containing 25 mM Tris-HCl (pH 7.0), 10 mM MgCl2, 100 µM EDTA, 2.8 µM of the substrate α-casein and 0.4 pmol [γ-^32P]-ATP at 30°C. […] Reactions were stopped by adding 3 µL of 5x SDS loading buffer and incubating at 95°C for 5 min. Proteins were separated by SDS-PAGE and stained with Coomassie Brilliant Blue R250 (Waldeck GmbH & Co. KG, Muenster, Germany). Autoradiography visualized the incorporation of radioactively labelled γ-phosphate into the proteins. A quantitative analysis of the radioactive signal was performed by excising the proteins from dried gels and measuring phosphate incorporation via Cherenkov counting (Beckmann Scintillation Counter). For the determination of the initial velocity region, a linear regression was performed. Thereby, the number of included data-points was decreased stepwise, and the point of time with the highest maximum coefficient of determination (R ^2) was chosen as the kinase-specific standard reaction time. For determination of the maximal velocity (Vmax) and Michaelis constant (Km) of ATP, various ATP concentrations in a range from 0.5 to 250 µM were tested. Raw data was used for the calculation of enzyme velocity (V) in [pmol/min]. Then, V was plotted over substrate (ATP) concentration and fitted to the Michaelis-Menten model via GraphPad Prism 8 (GraphPad Software, La Jolla, CA, United States). According to the Michaelis-Menten curve, Km, which is the concentration of the substrate, that is needed to obtain half Vmax, was calculated. For determination of IC50 values, the scintillation data measured in cpm was transformed to pmol of transferred phosphate. The data was then transformed logarithmically (X = log(X)), normalized to DMSO (100%) and zero (0%) before fitting to sigmoidal dose-response curves with variable slope with nonlinear regression using GraphPad Prism 7.
# (§2) In compliance with the established standard conditions the kinase assays were performed in the presence of 20 µM of the respective inhibitor (Figure 7).
# (§3) Next, in vitro kinase assays were performed in absence and presence of the respective SMI at different concentrations (ranging from 13 to 26667 nM). The kinase activity of the inhibitor-treated samples was normalized to the DMSO-control and plotted against the inhibitor concentration (Figure 10).
# His-DrCK1δB = target: T2, His-DrCK1δB (Danio rerio, UniProt Q6P3K7); assay: as above; format: biochemical, zebrafish (Danio rerio)
# T2 construct: made in house; host or cells: E. coli Rosetta 2 (DE3)
# T2 sequence (Q6P3K7 1-409): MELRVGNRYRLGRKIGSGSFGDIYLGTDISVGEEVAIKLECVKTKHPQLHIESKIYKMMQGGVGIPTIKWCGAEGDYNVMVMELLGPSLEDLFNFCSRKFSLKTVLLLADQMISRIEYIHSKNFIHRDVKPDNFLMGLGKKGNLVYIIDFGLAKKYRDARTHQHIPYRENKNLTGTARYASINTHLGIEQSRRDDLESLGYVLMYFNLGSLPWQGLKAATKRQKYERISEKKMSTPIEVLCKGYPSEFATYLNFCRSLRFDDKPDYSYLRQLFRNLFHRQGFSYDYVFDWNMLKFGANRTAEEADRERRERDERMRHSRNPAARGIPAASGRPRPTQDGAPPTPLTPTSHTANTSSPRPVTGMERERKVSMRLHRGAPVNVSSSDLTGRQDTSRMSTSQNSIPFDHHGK
# Procedure: as §1, §2, §3
# GST-CK1ε = target: T3, GST-CK1ε (Homo sapiens, UniProt P49674); assay: as above; format: biochemical
# T3 construct: made in house; host or cells: E. coli Rosetta 2 (DE3)
# T3 sequence (P49674 whole entry): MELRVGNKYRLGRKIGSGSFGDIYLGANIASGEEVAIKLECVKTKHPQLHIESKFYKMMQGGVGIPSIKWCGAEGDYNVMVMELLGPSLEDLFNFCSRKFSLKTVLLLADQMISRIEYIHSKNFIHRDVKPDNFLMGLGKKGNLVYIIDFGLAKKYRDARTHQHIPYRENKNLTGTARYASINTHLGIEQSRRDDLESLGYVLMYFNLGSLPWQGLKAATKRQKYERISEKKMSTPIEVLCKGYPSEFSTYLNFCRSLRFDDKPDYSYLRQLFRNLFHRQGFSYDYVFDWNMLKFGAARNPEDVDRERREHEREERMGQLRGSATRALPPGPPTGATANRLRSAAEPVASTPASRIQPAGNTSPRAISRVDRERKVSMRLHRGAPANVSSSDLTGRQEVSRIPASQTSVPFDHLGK
# Procedure: as §1, §2
# His-DrCK1ε = assay: as above; format: biochemical, zebrafish (Danio rerio)
# Procedure: as §1, §2
# GST-humCK1δ^TV1 [1] = target: T4, GST-humCK1δ^TV1 (Homo sapiens, UniProt P48730); set-up: method as in Roth et al., 2021; conditions: previously established, ref Roth et al., 2021; read-out: Km(ATP); cited from earlier work
# T4 construct: made in house; host or cells: E. coli Rosetta 2 (DE3)
# T4 sequence (P48730 whole entry): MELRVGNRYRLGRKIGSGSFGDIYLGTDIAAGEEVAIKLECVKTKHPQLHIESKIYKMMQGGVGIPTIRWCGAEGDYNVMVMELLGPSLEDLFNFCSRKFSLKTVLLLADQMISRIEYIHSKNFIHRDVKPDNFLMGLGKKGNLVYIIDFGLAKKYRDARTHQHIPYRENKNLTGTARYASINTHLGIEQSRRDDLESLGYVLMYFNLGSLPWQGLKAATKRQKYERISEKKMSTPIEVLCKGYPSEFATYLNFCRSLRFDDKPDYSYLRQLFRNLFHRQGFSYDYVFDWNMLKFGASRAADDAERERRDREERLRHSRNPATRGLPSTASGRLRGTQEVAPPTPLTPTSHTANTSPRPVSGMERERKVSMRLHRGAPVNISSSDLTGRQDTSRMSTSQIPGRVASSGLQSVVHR
# CK1δ [2] = test system: CK1δ; set-up: method as in Bischof et al., 2012; Bibian et al., 2013; conditions: ref Bischof et al., 2012; Bibian et al., 2013; cited from earlier work
# M28FCK1δ (rat) = M28FCK1δ (rat) (Rattus norvegicus, UniProt Q06486, M82F); assay: initial IC50 determination in in vitro kinase assays, prior to standardization; format: biochemical
# Chain of M28FCK1δ (rat) (Q06486 whole entry M82F): as the sequence (P48730 whole entry) above, with M82F, I381V counted along it
# CK1δ (rat) = CK1δ (rat) (Rattus norvegicus, UniProt Q06486); assay: as above; format: biochemical; conditions: not published
# Chain of CK1δ (rat) (Q06486 whole entry): as the sequence (P48730 whole entry) above, with I381V counted along it
# Procedure: (§4) The SMIs used in this study (summarized in Supplementary Table S2) were selected based on their inhibitory capacity toward CK1δ in vitro, whereby a broad range of inhibitors with varying efficiency were included. The determination of IC50-values was conducted prior to the standardization workflow establishment. Zebrafish embryos treated with 20 µM of the respective compound were phenotypically analyzed.
# (§5) Supplementary Table 6: List of the inhibitors that were selected for the in vivo screening of zebrafish embryonic development. The compounds were selected based on their ability to inhibit CK1δ in in vitro kinase assays. The initial IC50-values were determined prior to the establishment of the standardized in vitro kinase assay protocol. The Supplementary Table summarizes, whether the zebrafish embryos presented an abnormal phenotype upon inhibitor treatment. The inhibitors were added to the zebrafish medium in a concentration of 20 µM.
# CK1ε = CK1ε (Homo sapiens, UniProt P49674); assay: as above; format: biochemical
# Chain of CK1ε (P49674 whole entry): as the sequence (P49674 whole entry) above
# Procedure: as §4, §5
# zebrafish embryos = conditions: for phenotype of treated zebrafish embryos: 24 to 72 hpf (48 h)
# Procedure: The TüAB wildtype strain was used for all experiments. […] Zebrafish embryos were dechorionated at 24 h post fertilization (hpf) and treated with the respective concentration of inhibitor, dissolved in DMSO (Sigma-Aldrich, Stadt, Land) and diluted in E3 medium (5 mM NaCl, 0.17 mM KCl, 0.33 mM CaCl2, 0.33 mM MgSO4, 0.6 µM Methylene Blue dissolved in water). DMSO served as solvent control. Embryos were treated from 24 hpf until 72 hpf, the compound solution was renewed daily. Pictures and movies were recorded at 48 and 72 hpf. […] Pictures were taken on an Olympus stereo microscope SZX16 and movies were recorded on an inverse Leica stereo microscope DM IL LED Fluo equipped with a FLEXACAM C1.
# Embryos were dechorionated at 24 hpf and treated with 20 µM of the respective inhibitor (Figure 6A).
# CK1δ (TV1) = CK1δ (TV1) (Homo sapiens, UniProt P48730); assay: initial IC50 determination in in vitro kinase assays, prior to standardization; format: biochemical; conditions: not published
# Chain of CK1δ (TV1) (P48730 whole entry): as the sequence (P48730 whole entry) above
# Procedure: as §4, §5
# CK1δ (TV2) = target: T5, CK1δ (TV2) (Homo sapiens, UniProt P48730); assay: as above; format: biochemical; conditions: not published
# T5 sequence (P48730 1-409 isoform P48730-2): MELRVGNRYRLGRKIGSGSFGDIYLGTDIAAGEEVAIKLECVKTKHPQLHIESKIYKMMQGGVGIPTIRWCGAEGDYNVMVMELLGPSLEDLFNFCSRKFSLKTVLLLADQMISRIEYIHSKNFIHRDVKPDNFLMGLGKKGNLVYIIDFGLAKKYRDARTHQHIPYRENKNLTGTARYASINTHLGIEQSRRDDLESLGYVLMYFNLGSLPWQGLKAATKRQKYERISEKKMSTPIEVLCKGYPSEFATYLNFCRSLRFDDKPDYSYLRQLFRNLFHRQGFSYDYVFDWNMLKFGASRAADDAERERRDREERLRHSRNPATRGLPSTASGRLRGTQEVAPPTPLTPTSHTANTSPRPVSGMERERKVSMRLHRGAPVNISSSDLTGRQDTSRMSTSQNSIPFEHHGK
# Procedure: as §4, §5
# GST-humCK1δ^TV1 [3] = target: T4, GST-humCK1δ^TV1; assay: in vitro kinase assay, α-casein phosphorylation with [γ-32P]-ATP, standard conditions; format: biochemical
# Procedure: as §1, §2, §3
# CK1δ [4] = conditions: prior to standardization, ref Liu et al., 2019; cited from earlier work
# human PKCα = test system: human PKCα; set-up: method as in Qiao et al., 2021; conditions: ref Qiao et al., 2021; cited from earlier work
# zebrafish PKCα = test system: zebrafish PKCα; set-up: method as in Qiao et al., 2021; conditions: ref Qiao et al., 2021; cited from earlier work
# csnk1da (CK1δA) = assay: morpholino knockdown in zebrafish embryos, phenotype; format: in vivo, zebrafish (D. rerio); conditions: 400 µM injected, 72 hpf
# Description: The TüAB wildtype strain was used for all experiments. […] DMSO served as solvent control. […] Embryos were immobilized in 2.5% methylcellulose.
# [5] = Michaelis-Menten, ATP 0.5-250 µM
# [6] = not published, read-out: IC50 values wtCK1ε
# [7] = 20 µM inhibitor, normalized to DMSO control
# [8] = inhibitor 13 to 26667 nM, ATP at Km, normalized to DMSO
# [9] = resulting from IC50 (Cheng-Prusoff, ATP at Km)
compound,measurement,setting,value
Nc1ncnc2c1ncn2[C@@H]1O[C@H](COP(=O)(O)OP(=O)(O)OP(=O)(O)O)[C@@H](O)[C@H]1O [ATP],Km,His-DrCK1δA; [5],12 µM
same,Km,His-DrCK1δB; [5],5.31 µM
same,Km,GST-CK1ε; [5],15.4 µM
same,Km,His-DrCK1ε; [5],14.5 µM
same,Km,GST-humCK1δ^TV1 [1],6 µM
O=C(Nc1nc2ccc(C(F)(F)F)cc2[nH]1)c1csc(NC(=O)c2ccccc2OC(F)(F)F)n1 [Bischof-5],50% inhibitory concentration (IC50) values,CK1δ [2],double-digit nanomolar range
"COc1cc(Cn2c(SCC(=O)Nc3nc4ccc(C(F)(F)F)cc4s3)nc3c(c2=O)SCC3)cc(OC)c1 [G1-4, 2-((3-(3,5-Dimethoxybenzyl)-4-oxo-3,4,6,7-tetrahydrothieno[3,2-d]pyrimidin-2-yl)thio)-N-(6-(trifluormethyl)benzo [d]thiazol-2-yl)acetamid]",IC50,"M28FCK1δ (rat); prior to standardization, not published, read-out: IC50 values M28FCK1δ (rat)",160 nM
same,IC50,CK1δ (rat),380 nM
same,IC50,CK1ε; [6],3200 nM
same,Phenotypic changes,"zebrafish embryos; zebrafish, in vivo",None observed
same,Phenotypic changes (with severity) after treatment of zebrafish embryos with 20 µM inhibitor,"zebrafish embryos; zebrafish, in vivo",No
"CC(C)n1c(SCC(=O)Nc2nc3ccc(C(F)(F)F)cc3s2)nc2c(c1=O)SCC2 [G1-5, 2-((3-Isopropyl-4-oxo-3,4,6,7-tetrahydrothieno[3,2-d]pyrimidin-2-yl)thio)-N-(6-(trifluormethyl)benzo [d]thiazol-2-yl)acetamid]",IC50,M28FCK1δ (rat),120 nM
same,IC50,CK1δ (TV1),380 nM
same,IC50,CK1δ (TV2),510 nM
same,IC50,CK1δ (rat),160 nM
same,IC50,CK1ε; [6],780 nM
same,Phenotypic changes (with severity) after treatment of zebrafish embryos with 20 µM inhibitor,"zebrafish embryos; 20 µM in medium, from 24 hpf",Yes (mild)
same,phenotype of treated zebrafish embryos,zebrafish embryos; 20 µM,weak effect on heart development and function with a mild bradycardia and reduced heart rate; also recorded: a curved tail
O=C(CSc1nccc(=O)n1Cc1ccc(C(F)(F)F)cc1)Nc1nc2ccc(C(F)(F)F)cc2s1 [G2-2],mean residual kinase activity ± SD,GST-humCK1δ^TV1 [3]; [7],8.4 ± 1.1%
same,IC50,GST-humCK1δ^TV1 [3]; [8],503 nM
same,Ki,GST-humCK1δ^TV1 [3]; [9],251 nM
same,mean residual kinase activity ± SD,His-DrCK1δA; [7],12.1 ± 3.9%
same,IC50,His-DrCK1δA; [8],345 nM
same,Ki,His-DrCK1δA; [9],173 nM
same,mean residual kinase activity ± SD,His-DrCK1δB; [7],16.1 ± 9.5%
same,IC50,His-DrCK1δB; [8],270 nM
same,Ki,His-DrCK1δB; [9],135 nM
same,mean residual kinase activity ± SD,GST-CK1ε; [7],11.9 ± 2.0%
same,mean residual kinase activity ± SD,His-DrCK1ε; [7],10.5 ± 3.0%
same,IC50,"CK1ε; marked * not published, read-out: IC50 values CK1ε",926 nM
same,phenotype of treated zebrafish embryos,zebrafish embryos; 5 µM,"cardiac phenotype, with bradycardia and blood congestion"
same,phenotype of treated zebrafish embryos,zebrafish embryos; 10 µM,did not pump blood; also recorded: reduced heart function; also recorded: blood congestion and pericardial edema
same,Phenotypic changes (with severity) after treatment of zebrafish embryos with 20 µM inhibitor,"zebrafish embryos; 20 µM in medium, from 24 hpf",Yes (severe)
same,phenotype of treated zebrafish embryos,zebrafish embryos; 20 µM,"strong cardiac phenotype, with blood congestion, a strong bradycardia and partially total loss of heart beat; also recorded: severe effects on the embryonic development, with strong bradycardia and blood congestion; also recorded: blood congestions; also recorded: pericardial edema"
same,phenotype of treated zebrafish embryos,zebrafish embryos; 40 µM,"dead and highly toxic, and all treated embryos were dead after 48 h of treatment"
same,concentration that induced necrosis,"zebrafish embryos; 48 h of incubation, doses 5, 10, 20 and 40 µM",40 µM
same,lethality to embryos,zebrafish embryos; at concentrations of 20 and 40 μM,lethal
same,IC50,CK1δ [4],120 nM
O=S(=O)(NCCNC/C=C/c1ccc(Br)cc1)c1cccc2cnccc12 [H89],IC50,human PKCα,31200 nM
same,IC50,zebrafish PKCα,49800 nM
Fc1cccc(-n2cnc3c(NCc4nc5c(F)c(F)ccc5[nH]4)nc(N4CCOCC4)nc32)c1 [SR-3029],50% inhibitory concentration (IC50) values,CK1δ [2],double-digit nanomolar range
"csnk1da: morpholino-modified antisense oligonucleotide targeting the translational start site of csnk1da, 5′-TCGGTTTCCTACTCTCAATTCCATG-3′ (all phosphorodiamidate morpholino (PMO))",phenotype of morpholino injected embryos,csnk1da (CK1δA),reduced heart function resulting in blood congestion; also recorded: cardiac malfunction

# Source: publication PMC10518421, “Zebrafish as model system for the biological characterization of CK1 inhibitors” (Frontiers in Pharmacology, 2023)
